Assay results published in patent publication US8192962B2, “Processes for detecting toxic substances” (Daikin Industries, Ltd., priority 2001, dated 2012).

System: Genes belonging to other category
Experiment: DNA chip mRNA expression in yeast, genes belonging to other category (Table 9)
Type: cell-based, Saccharomyces cerevisiae S288C
Outline: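 S. cerevisiae S288C grown at 25° C in YPD were exposed in log phase for two hours to one toxic chemical at a growth-inhibiting, non-lethal concentration; untreated cells served as control. Poly(A) mRNA was reverse-transcribed with Cy3/Cy5-dUTP and hybridized to a whole-genome yeast DNA chip at 65° C for over 12 hours; values are fluorescence ratios versus untreated.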

Cl[C@H]1[C@H](Cl)[C@@H](Cl)[C@@H](Cl)[C@H](Cl)[C@H]1Cl [(7), γ-hexachlorocyclohexane]
The level of expressed mRNA in the presence of chemical substance/The level of expressed mRNA in the absence of chemical substance (yeast gene YKL013C): 1.8 | The level of expressed mRNA in the presence of chemical substance/The level of expressed mRNA in the absence of chemical substance (yeast gene YKL039W): 2.0 | The level of expressed mRNA in the presence of chemical substance/The level of expressed mRNA in the absence of chemical substance (yeast gene YKL041W): 1.0 | The level of expressed mRNA in the presence of chemical substance/The level of expressed mRNA in the absence of chemical substance (yeast gene YKL096W): 0.2 | The level of expressed mRNA in the presence of chemical substance/The level of expressed mRNA in the absence of chemical substance (yeast gene YKL139W): 2.6 | The level of expressed mRNA in the presence of chemical substance/The level of expressed mRNA in the absence of chemical substance (yeast gene YKL165C): 2.1 | The level of expressed mRNA in the presence of chemical substance/The level of expressed mRNA in the absence of chemical substance (yeast gene YKL193C): 2.1 | The level of expressed mRNA in the presence of chemical substance/The level of expressed mRNA in the absence of chemical substance (yeast gene YLR120C): 1.5 | The level of expressed mRNA in the presence of chemical substance/The level of expressed mRNA in the absence of chemical substance (yeast gene YLR136C): 3.9 | The level of expressed mRNA in the presence of chemical substance/The level of expressed mRNA in the absence of chemical substance (yeast gene YLR178C): 3.3 | The level of expressed mRNA in the presence of chemical substance/The level of expressed mRNA in the absence of chemical substance (yeast gene YLR250W): 1.9 | The level of expressed mRNA in the presence of chemical substance/The level of expressed mRNA in the absence of chemical substance (yeast gene YLR327C): 5.7 | The level of expressed mRNA in the presence of chemical substance/The level of expressed mRNA in the absence of chemical substance (yeast gene YLR356W): 1.1 | The level of expressed mRNA in the presence of chemical substance/The level of expressed mRNA in the absence of chemical substance (yeast gene YLR362W): 1.9 | The level of expressed mRNA in the presence of chemical substance/The level of expressed mRNA in the absence of chemical substance (yeast gene YLR391W): 0.7 | The level of expressed mRNA in the presence of chemical substance/The level of expressed mRNA in the absence of chemical substance (yeast gene YLR429W): 1.3 | The level of expressed mRNA in the presence of chemical substance/The level of expressed mRNA in the absence of chemical substance (yeast gene YMR004W): 1.2 | The level of expressed mRNA in the presence of chemical substance/The level of expressed mRNA in the absence of chemical substance (yeast gene YMR094W): 0.8 | The level of expressed mRNA in the presence of chemical substance/The level of expressed mRNA in the absence of chemical substance (yeast gene YMR104C): 1.5 | The level of expressed mRNA in the presence of chemical substance/The level of expressed mRNA in the absence of chemical substance (yeast gene YMR226C): 1.8 | The level of expressed mRNA in the presence of chemical substance/The level of expressed mRNA in the absence of chemical substance (yeast gene YMR275C): 0.8 | The level of expressed mRNA in the presence of chemical substance/The level of expressed mRNA in the absence of chemical substance (yeast gene YMR276W): 1.1 | The level of expressed mRNA in the presence of chemical substance/The level of expressed mRNA in the absence of chemical substance (yeast gene YMR314W): 1.1 | The level of expressed mRNA in the presence of chemical substance/The level of expressed mRNA in the absence of chemical substance (yeast gene YNL006W): 1.6 | The level of expressed mRNA in the presence of chemical substance/The level of expressed mRNA in the absence of chemical substance (yeast gene YNL007C): 1.2 | The level of expressed mRNA in the presence of chemical substance/The level of expressed mRNA in the absence of chemical substance (yeast gene YNL093W): 1.4 | The level of expressed mRNA in the presence of chemical substance/The level of expressed mRNA in the absence of chemical substance (yeast gene YNL333W): 2.9 | The level of expressed mRNA in the presence of chemical substance/The level of expressed mRNA in the absence of chemical substance (yeast gene YNR010W): 1.5 | The level of expressed mRNA in the presence of chemical substance/The level of expressed mRNA in the absence of chemical substance (yeast gene YNR069C): 1.4 | The level of expressed mRNA in the presence of chemical substance/The level of expressed mRNA in the absence of chemical substance (yeast gene YOL013C): 1.7 | The level of expressed mRNA in the presence of chemical substance/The level of expressed mRNA in the absence of chemical substance (yeast gene YOL164W): 2.2 | The level of expressed mRNA in the presence of chemical substance/The level of expressed mRNA in the absence of chemical substance (yeast gene YOR036W): 1.8 | The level of expressed mRNA in the presence of chemical substance/The level of expressed mRNA in the absence of chemical substance (yeast gene YOR117W): 3.3 | The level of expressed mRNA in the presence of chemical substance/The level of expressed mRNA in the absence of chemical substance (yeast gene YOR124C): 1.1 | The level of expressed mRNA in the presence of chemical substance/The level of expressed mRNA in the absence of chemical substance (yeast gene YOR132W): 1.4 | The level of expressed mRNA in the presence of chemical substance/The level of expressed mRNA in the absence of chemical substance (yeast gene YOR157C): 1.2 | The level of expressed mRNA in the presence of chemical substance/The level of expressed mRNA in the absence of chemical substance (yeast gene YOR181W): 0.7 | The level of expressed mRNA in the presence of chemical substance/The level of expressed mRNA in the absence of chemical substance (yeast gene YOR185C): 1.3 | The level of expressed mRNA in the presence of chemical substance/The level of expressed mRNA in the absence of chemical substance (yeast gene YOR198C): 1.6 | The level of expressed mRNA in the presence of chemical substance/The level of expressed mRNA in the absence of chemical substance (yeast gene YOR259C): 1.3 | The level of expressed mRNA in the presence of chemical substance/The level of expressed mRNA in the absence of chemical substance (yeast gene YOR261C): 1.9 | The level of expressed mRNA in the presence of chemical substance/The level of expressed mRNA in the absence of chemical substance (yeast gene YOR288C): 2.0 | The level of expressed mRNA in the presence of chemical substance/The level of expressed mRNA in the absence of chemical substance (yeast gene YOR355W): 1.1 | The level of expressed mRNA in the presence of chemical substance/The level of expressed mRNA in the absence of chemical substance (yeast gene YOR383C): 8.0 | The level of expressed mRNA in the presence of chemical substance/The level of expressed mRNA in the absence of chemical substance (yeast gene YPL089C): 0.9 | The level of expressed mRNA in the presence of chemical substance/The level of expressed mRNA in the absence of chemical substance (yeast gene YPL109C): 1.8 | The level of expressed mRNA in the presence of chemical substance/The level of expressed mRNA in the absence of chemical substance (yeast gene YPL149W): 1.2 | The level of expressed mRNA in the presence of chemical substance/The level of expressed mRNA in the absence of chemical substance (yeast gene YPL154C): 1.5 | The level of expressed mRNA in the presence of chemical substance/The level of expressed mRNA in the absence of chemical substance (yeast gene YPR103W): 1.6 | The level of expressed mRNA in the presence of chemical substance/The level of expressed mRNA in the absence of chemical substance (yeast gene YPR108W): 1.6
